This is an account of results in patent US8618303B2, “Pyrrolidine derivatives” (Hoffmann-La Roche Inc., priority 2011, dated 2013).

The target in one test is human NK3 receptor (Homo sapiens (Human), UniProt P29371). Briefly: [3H]SR142801 competition binding assay. As to the method: hNK3 receptor binding experiment were performed using [^3H]SR142801 (Catalog No. TRK1035, specific activity: 74.0 Ci/mmol, Amersham, GE Healthcare UK limited, Buckinghamshire, UK) and membrane isolated from HEK293 cells transiently expressing recombinant human NK3 receptor. After thawing, the membrane homogenates were centrifuged at 48,000×g for 10 min at 4° C., the pellets were resuspended in the 50 mM Tris-HCl, 4 mM MnCl2, 1 μM phosphoramidon, 0.1% BSA binding buffer at pH 7.4 to a final assay concentration of 5 μg protein/well. […] At the end of the incubation, membranes were filtered onto unitfilter (96-well white microplate with bonded GF/C filter preincubated 1 h in 0.3% PEI+0.3% BSA, Packard BioScience, Meriden, Conn.) with a Filtermate 196 harvester (Packard BioScience) and washed 4 times with ice-cold 50 mM Tris-HCl, pH 7.4 buffer. Nonspecific binding was measured in the presence of 10μM SB222200 for both radioligands. The radioactivity on the filter was counted (5 min) on a Packard Top-count microplate scintillation counter with quenching correction after addition of 45 μl of microscint 40 (Canberra Packard S.A., Ziirich, Switzerland) and shaking for 1 h. Inhibition curves were fitted according to the Hill equation: y=100/(1+(x/IC50), where nH=slope factor using Excel-fit 4 software (Microsoft). IC50 values were derived from the inhibition curve and the affinity constant (Ki) values were calculated using the Cheng-Prussoff equation Ki =IC50/(1+[L]/KD) where [L] is the concentration of radioligand and KD is its dissociation constant at the receptor, derived from the saturation isotherm. All experiments were performed in duplicate and the mean±standard error (SEM) of the individual Ki values was calculated.
human NK3 receptor, sequence (P29371 whole entry): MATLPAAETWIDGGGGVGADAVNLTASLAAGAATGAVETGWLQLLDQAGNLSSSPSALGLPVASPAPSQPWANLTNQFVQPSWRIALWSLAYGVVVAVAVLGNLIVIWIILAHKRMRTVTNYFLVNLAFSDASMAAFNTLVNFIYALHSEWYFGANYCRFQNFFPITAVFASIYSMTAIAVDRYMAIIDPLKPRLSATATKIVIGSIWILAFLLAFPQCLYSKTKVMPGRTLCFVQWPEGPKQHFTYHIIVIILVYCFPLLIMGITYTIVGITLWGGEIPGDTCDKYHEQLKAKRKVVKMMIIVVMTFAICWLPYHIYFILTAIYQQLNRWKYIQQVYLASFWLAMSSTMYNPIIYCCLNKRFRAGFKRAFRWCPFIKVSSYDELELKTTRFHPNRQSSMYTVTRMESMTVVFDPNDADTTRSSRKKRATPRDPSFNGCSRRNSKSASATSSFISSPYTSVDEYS

For test [1] the following is noted: phase II trial; cited from earlier work.
Where [2] appears, read: membranes from HEK293 cells transiently expressing recombinant human NK3 receptor, [3H]SR142801, Ki from IC50 by Cheng-Prussoff, read-out: Ki (uM) hNK3.

Read-outs that look alike come from different tables or passages of the source.

Consider `CN(C(=O)Oc1ccc(F)cc1)[C@@H]1CN(C(=O)C2CCN(c3ccc(C(F)(F)F)cn3)CC2)C[C@@]1(C)c1ccc(Cl)cc1` (racemic) [Example 33, rac-[(3S,4R)-4-(4-Chloro-phenyl)-4-methyl-1-(5′-trifluoromethyl-3,4,5,6-tetrahydro-2H-[1,2′]bipyridinyl-4-carbonyl)-pyrrolidin-3-yl]-methyl-carbamic acid 4-fluoro-phenyl ester], for which, at human NK3 receptor (setting [2]), the inhibitory constant (Ki) worked out at 0.02 µM.
For the compound `COc1ccc(N2CCC(C(=O)N3C[C@@H](N(C)C(=O)Oc4ccc(F)cc4)[C@](C)(c4ccc(Cl)cc4)C3)CC2)nn1` (racemic) [Example 35, rac-{(3S,4R)-4-(4-Chloro-phenyl)-1-[1-(6-methoxy-pyridazin-3-yl)-piperidine-4-carbonyl]-4-methyl-pyrrolidin-3-yl}-methyl-carbamic acid 4-fluoro-phenyl ester], the affinity at human NK3 receptor corresponds to a Ki of 0.0213 µM.
Regarding `CN(C(=O)Oc1ccc(F)cc1)[C@@H]1CN(C(=O)c2ccc(N3CCCCC3=O)cc2)C[C@@]1(C)c1ccc(Cl)cc1` (racemic) [Example 36, rac-{(3S,4R)-4-(4-Chloro-phenyl)-4-methyl-1-[4-(2-oxo-piperidin-1-yl)-benzoyl]-pyrrolidin-3-yl}-methyl-carbamic acid 4-fluoro-phenyl ester], at human NK3 receptor (setting [2]), the inhibitory constant (Ki) was 0.997 µM.
The compound `CN(C(=O)Oc1ccc(F)cc1)[C@@H]1CN(C(=O)C2CCN(C3CCCCC3)CC2)C[C@@]1(C)c1ccc(Cl)cc1` [Example 25, [(3S,4R)-4-(4-Chloro-phenyl)-1-(1-cyclohexyl-piperidine-4-carbonyl)-4-methyl-pyrrolidin-3-yl]-methyl-carbamic acid 4-fluoro-phenyl ester] had a Ki on human NK3 receptor of 0.0915 µM.
As to `CC(=O)N(C)C1(c2ccccc2)CCN(CCC[C@]2(c3ccc(Cl)c(Cl)c3)CCCN(C(=O)c3ccccc3)C2)CC1` [SR 142,801, Osanetant], in test [1], the “activity on negative symptoms of schizophrenia” value was “inactive in the treatment of negative symptoms” and the “activity on positive symptoms of schizophrenia” value is “active on positive symptoms of schizophrenia”.

The term Ki denotes a dissociation constant, usually derived from enzyme kinetics or from competition with a known ligand.
